According to patent US7598279B2, “Neurotherapeutic azole compounds” (SK Holdings Co., Ltd., priority 2005, dated 2009):

How the values were obtained:
Type in all cases: in vivo
[1] = test system: mice; test: Forced swimming test (FST); settings: 30 min after dosing
Method: The “Forced swimming test (FST)” for antidepressant activity was also carried out. The procedure employed in the FST for antidepressant is as follows. The compounds to be tested were dissolved in 30% PEG400 and administered ip and po into animals. 30 min later, the immobility time during post 4 minutes of 6 minutes experiment time was measured.

[2] = test system: mice; test: Pentylenetetrazol (PTZ)-induced clonic seizure test; settings: Mus musculus; for responders at 30 mg/kg: read-out: Mice PTZ Protection % (mpk/peak time)
Method: The “Pentylenetetrazol (PTZ)” test for anticonvulsant and antianxiety activity was also carried out.
The procedure employed in the PTZ test is as follows. The compounds to be tested were dissolved in 30% PEG400 and administered ip and po into animals. After the designated number of hours, each animal was injected subcutaneously with 100 mg/kg of PTZ (CD97 dose) and observed for up to 30 minutes for the presence or absence of clonic spasms over 5 seconds. Median efficacy dose (ED50) levels were determined using three different dose levels with 8 mice in each group.

[3] = test system: mice; test: Maximal ElectroShock (MES)-induced tonic seizure test; settings: Mus musculus; for responders at 30 mg/kg: read-out: Mice MES Protection % (mpk/peak time); for ED50: read-out: Mice MES ED50 (mpk/peak time)
Method: The “Maximal ElectroShock (MES)” test is a well-established pharmacological screening method for anticonvulsants against tonic-clonic seizures. The procedure employed in the MES test for anticonvulsants is as follows. The compounds to be tested were dissolved in 30% PEG400 and administered ip and po into animals. After the designated number of hours, maximal electroshock (50 mA, 60 Hz, 0.2 sec) was applied into animals via corneal electrodes using IITC Life Science model 11A Shocker. […] Median efficacy dose (ED50) levels were determined using three different dose levels with at least 8 mice in each group.

[4] = 3 mice, 30 mpk, 0.5, 1, 2, 4 hr

SMILES	Mice FST Reduction of immobility % ([1]; dose not given)	ED50 ([3]; 0.5 h)	also measured
O=C(OC(COc1cc(Cl)ccc1Cl)Cn1ncnn1)N1CCC(CCc2ccccc2)C1 (stereo not shown) [Example 208, 3-Phenethyl-pyrrolidine-1-carboxylic acid 2-(2,5-dichloro-phenoxy)-1-tetrazol-2-ylmethyl-ethyl ester]	48.2%		responders at 30 mg/kg ([2]; 3 mice, 30 mpk, 4 hr): 33.3%; responders at 30 mg/kg ([3]; 3 mice, 30 mpk, 0.5, 1, 4 hr): 100%
O=C(OC(COc1ccc(Cl)c(Cl)c1)Cn1nccn1)N1CCC(CCc2ccccc2)C1 (stereo not shown) [Example 207, 3-Phenethyl-pyrrolidine-1-carboxylic acid 2-(3,4-dichloro-phenoxy)-1-[1,2,3]triazol-2-ylmethyl-ethyl ester]	43.4%		responders at 30 mg/kg ([3]; 3 mice, 30 mpk, 0.5, 1, 4 hr): 100%
NC(=O)OC(Cn1nccn1)c1ccccc1C(F)(F)F (stereo not shown) [Example 39, Carbamic acid 2-[1,2,3]triazol-2-yl-1-(2-trifluoromethyl-phenyl)-ethyl ester]		12.5 mg/kg	
O=C(OC(COc1ccc(Cl)cc1Cl)Cn1nccn1)N1CCC(CCc2ccccc2)C1 (stereo not shown) [Example 206, 3-Phenethyl-pyrrolidine-1-carboxylic acid 2-(2,4-dichloro-phenoxy)-1-[1,2,3]triazol-2-ylmethyl-ethyl ester]	51.4%		responders at 30 mg/kg ([2]; 3 mice, 30 mpk, 2, 4 hr): 66.7%; responders at 30 mg/kg [3, 4]: 100%
O=C(OC(Cn1ncnn1)c1cc(Cl)ccc1Cl)N1CCC(CCc2ccccc2)C1 (stereo not shown) [Example 202, 3-Phenethyl-pyrrolidine-1-carboxylic acid 1-(2,5-dichloro-phenyl)-2-tetrazol-2-yl-ethyl ester]	81.2%		responders at 30 mg/kg ([2]; 3 mice, 30 mpk, 1, 4 hr): 33.3%; ED50 ([3]; mice, peak time 0.5 hr): 11.4 mg/kg
O=C(OC(Cn1ncnn1)c1ccc(Cl)c(Cl)c1)N1CCC(CCc2ccccc2)C1 (stereo not shown) [Example 204, 3-Phenethyl-pyrrolidine-1-carboxylic acid 1-(3,4-dichloro-phenyl)-2-tetrazol-2-yl-ethyl ester]	51.2%		responders at 30 mg/kg ([3]; 3 mice, 30 mpk, 0.5, 1, 2 hr): 100%
NC(=O)O[C@@H](Cn1nccn1)c1ccc(Cl)c(Cl)c1 [Example 91, Carbamic acid (R)-1-(3,4-dichloro-phenyl)-2-[1,2,3]triazol-2-yl-ethyl ester]	94.0%	16 mg/kg	
O=C(OC(Cn1ncnn1)c1ccccc1Cl)N1CCC(CCc2ccccc2)C1 (stereo not shown) [Example 181, 3-Phenethyl-pyrrolidine-1-carboxylic acid 1-(2-chloro-phenyl)-2-tetrazol-2-yl-ethyl ester]	30.6%	12.1 mg/kg	responders at 30 mg/kg ([2]; 4 h): 33.3%
NC(=O)OC(Cc1ccccc1)Cn1ncnn1 (stereo not shown) [Example 116, Carbamic acid 2-phenyl-1-tetrazol-2-ylmethyl-ethyl ester]	30.0%		responders at 30 mg/kg ([2]; 2 h): 33.3%; responders at 30 mg/kg ([3]; 1 h): 100%
O=C(OC(Cn1ncnn1)c1cc(Cl)ccc1Cl)N1CCC(Cc2ccc(Cl)c(Cl)c2)CC1 (stereo not shown) [Example 191, 4-(3,4-Dichloro-benzyl)-piperidine-1-carboxylic acid 1-(2,5-dichloro-phenyl)-2-tetrazol-2-yl-ethyl ester]	50.6%		ED50 ([2]; sc, read-out: Mice PTZ ED50 (mpk/peak time)): > 30 mg/kg; responders at 30 mg/kg ([3]; 4 h): 66.7%
O=C(OC(Cn1ncnn1)c1ccccc1Cl)N1CCC(Cc2cc(C(F)(F)F)cc(C(F)(F)F)c2)CC1 (stereo not shown) [Example 197, 4-(3,5-Bis-trifluoromethyl-benzyl)-piperidine-1-carboxylic acid 1-(2-chloro-phenyl)-2-tetrazol-2-yl-ethyl ester]		6.3 mg/kg	Mice FST Reduction of immobility % [1]: N.S; responders at 30 mg/kg ([2]; 4 h): 100%
O=C(OC(Cn1nccn1)c1ccccc1Cl)N1CCC(Cc2ccc(Cl)c(Cl)c2)CC1 (stereo not shown) [Example 200, 4-(3,4-Dichloro-benzyl)-piperidine-1-carboxylic acid 1-(2-chloro-phenyl)-2-[1,2,3]triazol-2-yl-ethyl ester]	25.9%		responders at 30 mg/kg ([3]; 3 mice, 30 mpk, 0.5, 4 hr): 100%
NC(=O)OC(Cn1nccn1)c1ccc(Cl)cc1 (stereo not shown) [Example 10, Carbamic acid 1-(4-chloro-phenyl)-2-[1,2,3]triazol-2-yl-ethyl ester]	45.1%	21.3 mg/kg	
O=C(OC(Cn1ncnn1)c1ccccc1Cl)N1CCC(Cc2ccc(Cl)cc2)C1 (stereo not shown) [Example 196, 3-(4-Chloro-benzyl)-pyrrolidine-1-carboxylic acid 1-(2-chloro-phenyl)-2-tetrazol-2-yl-ethyl ester]		15.3 mg/kg	Mice FST Reduction of immobility % [1]: N.S; responders at 30 mg/kg ([2]; 4 h): 33.3%
O=C(OC(Cn1cnnn1)c1ccccc1Cl)N1CCC(Cc2ccc(Cl)c(Cl)c2)CC1 (stereo not shown) [Example 201, 4-(3,4-Dichloro-benzyl)-piperidine-1-carboxylic acid 1-(2-chloro-phenyl)-2-tetrazol-1-yl-ethyl ester]	54.0%		responders at 30 mg/kg ([3]; 3 mice, 30 mpk, 1, 2, 4 hr): 100%
O=C(OC(Cn1ncnn1)c1ccc(Cl)cc1Cl)N1CCC(CCc2ccccc2)C1 (stereo not shown) [Example 203, 3-Phenethyl-pyrrolidine-1-carboxylic acid 1-(2,4-dichloro-phenyl)-2-tetrazol-2-yl-ethyl ester]	44.0%		responders at 30 mg/kg [3, 4]: 100%
NC(=O)OC(Cn1ncnn1)c1ccc(Cl)cc1 (stereo not shown) [Example 5, Carbamic acid 1-(4-chloro-phenyl)-2-tetrazol-2-yl-ethyl ester]	71.7%	18.4 mg/kg	
O=C(OC(Cn1ncnn1)c1ccc(Cl)c(Cl)c1)N1CCC(Cc2ccc(Cl)c(Cl)c2)CC1 (stereo not shown) [Example 195, 4-(3,4-Dichloro-benzyl)-piperidine-1-carboxylic acid 1-(3,4-dichloro-phenyl)-2-tetrazol-2-yl-ethyl ester]	31.9%		responders at 30 mg/kg ([2]; 3 mice, 30 mpk, 0.5, 1 hr): 33.3%; ED50 ([3]; mice, peak time 0.5 hr): 15.3 mg/kg
NC(=O)O[C@@H](Cn1ncnn1)c1ccc(Cl)cc1 [Example 42, Carbamic acid (R)-1-(4-chloro-phenyl)-2-tetrazol-2-yl-ethyl ester]	44.1%	18.2 mg/kg	
O=C(OC(Cn1ncnn1)c1ccccc1Cl)N1CCC(Cc2ccc(Cl)c(Cl)c2)CC1 (stereo not shown) [Example 175, 4-(3,4-Dichloro-benzyl)-piperidine-1-carboxylic acid 1-(2-chloro-phenyl)-2-tetrazol-2-yl-ethyl ester]		20.2 mg/kg	Mice FST Reduction of immobility % [1]: N.S; responders at 30 mg/kg ([2]; 4 h): 66.7%
O=C(OC(Cn1ncnn1)c1ccc(Cl)cc1Cl)N1CCC(Cc2ccc(Cl)c(Cl)c2)CC1 (stereo not shown) [Example 194, 4-(3,4-Dichloro-benzyl)-piperidine-1-carboxylic acid 1-(2,4-dichloro-phenyl)-2-tetrazol-2-yl-ethyl ester]	53.4%	11.9 mg/kg	responders at 30 mg/kg ([2]; 2 h): 33.3%
